Reference: patent US20250152528A1, “RAPID RELIEF SPRAY” (HALEON US HOLDINGS LLC, priority 2022, published 2025)
Counter-ions that a name gives are not always drawn.

Tests used:
[1] = Two weak acid combinations with lidocaine citrate: pH, precipitation and stability at 4° C. for 3 months; settings: for Observation: appearance of solution; for Time to Lidocaine Citrate Precipitation: kept at 4° C. for 3 months; for pH: lidocaine citrate solution (25 wt. % ethanol, 15 wt. % glycerin, 2.5 wt. % propylene glycol) with 2 wt. % acidifying agent; for colour of solution after change from clear: ambient conditions
[2] = has been observed; in aqueous solutions; cited from earlier work
[3] = cited from earlier work
[4] = Crystallization inhibitors and free base lidocaine crystallization in low pH solutions; assay type: physicochemical; settings: 5.0 wt. % lidocaine free base, Example 1 composition; 0.5, 1.0, 2.0 wt. % Kollidon VA 64, PVP K-90, PVP K-25 or PVP K-30; pH=3.5 and pH=4 by excess citric acid; 24 samples
[5] = 5.0 wt. % lidocaine free base, 3.6 wt. % citric acid, 15 wt. % glycerin, 25 wt. % ethanol, water; pH adjusted between 4.5 to 3.5 with excess citric acid at 25° C.
[6] = 5 wt. % lidocaine free base in water with 24 wt. % isopropyl alcohol, 54 wt. % ethanol, or 10 wt. % isopropyl alcohol and 20 wt. % ethanol; pH 4.0 and 3.5 by excess citric acid
[7] = 2% acidifying agent, pH range of 4.2 to 3.3

Compound | Observation ([1]; 2 wt. % acidifying agent) | Time to Lidocaine Citrate Precipitation ([1]; 2 wt. % acidifying agent) | pH [1] | other results
O=C(O)CCCCC(=O)O [Adipic Acid] | – | – | – | prevention of lidocaine citrate precipitation ([1]; 5% acidifying agent): did not prevent precipitation; Observation ([1]; 5% acidifying agent): Clear; Time to Lidocaine Citrate Precipitation ([1]; 5% acidifying agent): 2 weeks
O=C1O[C@H]([C@@H](O)CO)C(O)=C1O [Ascorbic acid] | – | – | – | prevention of lidocaine citrate precipitation ([1]; 5% acidifying agent): prevented lidocaine citrate precipitation; colour of solution after change from clear ([1]; 5% acidifying agent): orange; Observation ([1]; 5% acidifying agent): Oxidized; Time to Lidocaine Citrate Precipitation ([1]; 5% acidifying agent): Not observed
O=C(O)[C@H](O)[C@@H](O)C(=O)O [L-Tartaric acid] | Clear | Not observed | 3.71 | –
CNC[C@H](O)c1cccc(O)c1 [Phenylephrine] | – | – | – | pH of solutions in which stable ([3]; background statement): ≤ 4.0
CCN(CC)CC(=O)Nc1c(C)cccc1C [lidocaine free base, lidocaine] | – | – | – | lidocaine crystallization with crystallization inhibitors [4]: thick layer of lidocaine crystallization; pH at which precipitation of lidocaine starts [5]: 4.0
CNC[C@H](O)c1cccc(O)c1 [phenylephrine HCl] | – | – | – | pH of solutions in which unstable ([3]; approximately): > 4
lidocaine citrate | – | – | – | crystallization in aqueous alcohol cosolvents [6]: crystallized out of all samples as an opaque layer; pH of lower pH solutions in which the salt crystallizes out (citrate salt generated in situ): ≤ 4.5
lidocaine malate | – | – | – | crystallization at low pH on storage (1:1 molar lidocaine free base and malic acid in water, excess malic acid to pH 3.6, several weeks at 4° C.): No lidocaine malate crystallization was observed

More lines, main results first:

Observation ([1]; 2 wt. % acidifying agent) | Time to Lidocaine Citrate Precipitation ([1]; 2 wt. % acidifying agent) | pH [1] | Compound | other results
Clear | Not observed | 4.00 | CC(=O)O [Acetic Acid] | –
Oxidized | Not observed | 3.72 | O=C(O)/C=C/C(=O)O [Fumaric acid] | colour of solution after change from clear ([1]; 2% acidifying agent): pale yellow solutions; prevention of lidocaine citrate precipitation [1, 7]: prevented lidocaine citrate precipitation
Clear | Not observed | 4.05 | CC(O)C(=O)O (stereo not shown) [Lactic acid] | –
Oxidized | Not observed | 3.32 | O=C(O)/C=C\C(=O)O [Maleic acid] | colour of solution after change from clear ([1]; 2% acidifying agent): pale yellow solutions; prevention of lidocaine citrate precipitation [1, 7]: prevented lidocaine citrate precipitation
Clear | Not observed | 3.93 | O=C(O)CC(O)C(=O)O (stereo not shown) [Malic Acid] | amount at which irritant to a healthy skin [2]: ≥ 5 wt. %
Clear | Not observed | 4.23 | O=C(O)CCC(=O)O [Succinic acid] | –
